Reference: patent publication US6548496B2, “Substituted 3-cyano-[1.7], [1.5], and [1.8] naphthyridine inhibitors of tyrosine kinases” (American Cyanamid Company, priority 1999, dated 2003)
Values after ≈ are worked out from the molar mass of the structure shown.

Legend:
[1] = molecular target: Epithelial Cell Kinase (ECK) (Homo sapiens, UniProt P29317); assay: Inhibition of Epithelial Cell Kinase (ECK); assay type: biochemical; conditions: biotinylated peptide substrate, HRP anti-phosphotyrosine readout, pH 7.2
Epithelial Cell Kinase (ECK), sequence (P29317 24-976, species assumed): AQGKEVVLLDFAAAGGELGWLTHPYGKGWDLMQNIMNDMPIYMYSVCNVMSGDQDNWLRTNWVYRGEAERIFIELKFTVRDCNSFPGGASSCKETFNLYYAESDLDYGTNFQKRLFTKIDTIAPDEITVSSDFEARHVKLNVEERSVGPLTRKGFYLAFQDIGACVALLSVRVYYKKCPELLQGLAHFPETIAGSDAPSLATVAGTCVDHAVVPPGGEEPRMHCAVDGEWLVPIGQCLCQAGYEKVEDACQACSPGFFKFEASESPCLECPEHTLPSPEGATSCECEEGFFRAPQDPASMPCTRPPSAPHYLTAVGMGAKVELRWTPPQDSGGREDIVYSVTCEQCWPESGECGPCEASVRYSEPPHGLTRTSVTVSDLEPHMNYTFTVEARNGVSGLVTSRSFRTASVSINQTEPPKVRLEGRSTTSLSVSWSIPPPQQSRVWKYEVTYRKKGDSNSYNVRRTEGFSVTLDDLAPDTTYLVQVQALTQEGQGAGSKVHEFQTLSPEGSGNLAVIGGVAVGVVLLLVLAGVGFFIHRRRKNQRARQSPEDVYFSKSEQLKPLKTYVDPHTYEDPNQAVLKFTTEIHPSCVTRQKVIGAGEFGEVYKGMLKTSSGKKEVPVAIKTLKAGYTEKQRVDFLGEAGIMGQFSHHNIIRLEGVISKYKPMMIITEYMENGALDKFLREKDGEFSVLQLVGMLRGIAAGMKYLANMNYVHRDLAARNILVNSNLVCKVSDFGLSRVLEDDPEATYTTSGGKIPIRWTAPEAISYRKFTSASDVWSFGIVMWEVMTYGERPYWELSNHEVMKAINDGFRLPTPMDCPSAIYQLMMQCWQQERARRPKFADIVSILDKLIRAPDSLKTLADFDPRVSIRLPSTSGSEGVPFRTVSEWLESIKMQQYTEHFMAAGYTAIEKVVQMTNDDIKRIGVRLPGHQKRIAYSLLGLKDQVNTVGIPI
Description: In this standard pharmacological test procedure, a biotinylated peptide substrate is first immobilized on neutravidin-coated microtiter plates. The test drug, the Epithelial Cell Kinase (ECK), Mg^++, sodium vanadate (a protein tyrosine phosphatase inhibitor), and an appropriate buffer to maintain pH (7.2) are then added to the immobilized substrate-containing microtiter wells. ATP is then added to initiate phosphorylation. After incubation, the assay plates are washed with a suitable buffer leaving behind phosphorylated peptide which is exposed to horse radish peroxidase (HRP)-conjugated anti-phosphotyrosine monoclonal antibody. The antibody-treated plates are washed again and the HRP activity in individual wells is quantified as a reflection of degree of substrate phosphorylation. This nonradioactive format was used to identify inhibitors of ECK tyrosine kinase activity where the IC50 is the concentration of drug that inhibits substrate phosphorylation by 50%. Multiple entries for a given compound indication it was tested multiple times.

[2] = molecular target: T1, epidermal growth factor receptor kinase (EGF-R), His-tagged cytoplasmic domain of EGFR (Homo sapiens, UniProt P00533); assay: Inhibition of EGF-R kinase using recombinant enzyme; assay type: biochemical; conditions: RR-SRC peptide substrate, 33P-ATP, 90 min at room temperature
T1 construct: containing the EGFR cDNA encoding amino acids 645-1186 preceded by Met-Ala-(His)6; made in house; host or cells: Sf9 insect cells, recombinant baculovirus vHcEGFR52
T1 sequence (P00533 669-1210): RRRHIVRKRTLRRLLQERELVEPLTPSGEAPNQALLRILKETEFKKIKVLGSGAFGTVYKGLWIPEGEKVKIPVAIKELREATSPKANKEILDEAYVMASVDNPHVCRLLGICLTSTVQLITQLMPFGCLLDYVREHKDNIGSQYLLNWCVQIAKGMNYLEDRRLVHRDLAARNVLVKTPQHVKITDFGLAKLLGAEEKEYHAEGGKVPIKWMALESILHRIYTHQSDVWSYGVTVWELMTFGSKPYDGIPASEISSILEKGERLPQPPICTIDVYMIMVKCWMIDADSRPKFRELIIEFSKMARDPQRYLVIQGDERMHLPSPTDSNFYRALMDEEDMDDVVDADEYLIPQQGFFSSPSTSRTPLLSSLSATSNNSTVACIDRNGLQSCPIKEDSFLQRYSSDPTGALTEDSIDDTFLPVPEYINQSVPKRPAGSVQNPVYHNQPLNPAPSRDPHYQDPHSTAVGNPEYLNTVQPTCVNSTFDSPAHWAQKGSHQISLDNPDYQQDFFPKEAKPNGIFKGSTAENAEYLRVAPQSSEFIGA
Description: Representative test compounds were evaluated for their ability to inhibit the phosphorylation of the tyrosine residue of a peptide substrate catalyzed by the enzyme epidermal growth factor receptor kinase. The peptide substrate (RR-SRC) has the sequence arg-arg-leu-ile-glu-asp-ala-glu-tyr-ala-ala-arg-gly. The enzyme used in this assay is the His-tagged cytoplasmic domain of EGFR. A recombinant baculovirus (vHcEGFR52) was constructed containing the EGFR cDNA encoding amino acids 645-1186 preceded by Met-Ala-(His)6. Sf9 cells in 100 mm plates were infected at an moi of 10 pfu/cell and cells were harvested 48 h post infection. A cytoplasmic extract was prepared using 1% Triton X-100 and applied to Ni-NTA column. After washing the column with 20 mM imidazole, HcEGFR was eluted with 250 mM imidazole (in 50 mM Na2HPO4, pH 8.0, 300 mM NaCl). […]
For the enzyme reaction, 10 uL of each inhibitor (at various concentrations) were added to each well of a 96-well plate. […] The filter discs were washed 2× with 0.5% phosphoric acid and radioactivity was measured using a liquid scintillation counter.
The inhibition data for representative compounds of the invention are shown below in TABLE 1. […] The % inhibition of the test compound was determined for at least three different concentrations and the IC50 value was evaluated from the dose response curve. The % inhibition was evaluated with the following formula: […]

[3] = test system: SW620; assay: Inhibition of cancer cell growth by cell number, SW620; assay type: cell-based, Human; conditions: Homo sapiens, SW-620; 48 hours exposure, Sulforhodamine B
Description: (§1) Human tumor cell lines were plated in 96-well plates (250 μl/well, 1-6×10^4 cells/ml) in RPMI 1640 medium, containing 5% FBS (Fetal Bovine Serum). […] After 48 hours exposure to test compounds, cells were fixed with trichloroacetic acid, and stained with Sulforhodamine B. After washing with trichloroacetic acid, bound dye was solubilized in 10 mM Tris base and optical density was determined using a plate reader. Under conditions of the assay the optical density is proportional to the number of cells in the well. IC50s (concentrations causing 50% inhibition of cell growth) were determined from the growth inhibition plots. The test procedure is described in details by Philip Skehan et. at J. Natl. Canc. Inst., 82, 1107-1112 (1990). […] Information about some of the cell lines used in these test procedures is available from the American […]: Cell Lines and Hybridomas, 1994 Reference Guide, 8th Edition. The Her2Neu cell line is a 3T3 line that has bbeen transfected with Her2 receptor kinase.

[4] = test system: A2780S; assay: Inhibition of cancer cell growth by cell number, A2780S; assay type: cell-based, Human; conditions: Homo sapiens, A2780S; 48 hours exposure, Sulforhodamine B
Description: as §1

[5] = test system: SKBR3; assay: Inhibition of cancer cell growth by cell number, SKBR3; assay type: cell-based, Human; conditions: Homo sapiens, SK-BR-3; 48 hours exposure, Sulforhodamine B
Description: as §1

[6] = test system: A2780DDP; assay: Inhibition of cancer cell growth by cell number, A2780DDP; assay type: cell-based, Human; conditions: Homo sapiens; 48 hours exposure, Sulforhodamine B
Description: as §1

[7] = test system: A431; assay: Inhibition of cancer cell growth by cell number, A431; assay type: cell-based, Human; conditions: Homo sapiens, A-431; 48 hours exposure, Sulforhodamine B
Description: as §1

[8] = test system: MDA435; assay: Inhibition of cancer cell growth by cell number, MDA435; assay type: cell-based, Human; conditions: Homo sapiens, MDA435; 48 hours exposure, Sulforhodamine B
Description: as §1

| melting point | SMILES | further results |
| --- | --- | --- |
|  | CC#CC(=O)Nc1cnc2ncc(C#N)c(Nc3cccc(Br)c3)c2c1 [Example 24, But-2-ynoic Acid [5-(3-bromo-phenylamino)-6-cyano-[1,8]-naphthyridin-3-yl]-amide] | IC50 [1]: < 0.04 µM |
|  | CC#CC(=O)Nc1cnc2ncc(C#N)c(Nc3ccc(F)c(Cl)c3)c2c1 [Example 27, But-2-ynoic acid [5-(3-chloro-4-fluoro-phenylamino)-6-cyano-[1,8]naphthyridin-3-yl]-amide] | IC50 [2]: > 0.1 µM |
| 185 to 195 °C | N#Cc1cnc2cnc(F)cc2c1Nc1cccc(Br)c1 [Example 57, 4-(3-Bromo-phenylamino)-6-fluoro-[1,7]naphthyridine-3-carbonitrile] |  |
| 82 to 86 °C (dec.) | COc1ccc(CNc2cc3c(Nc4cccc(Br)c4)c(C#N)cnc3cn2)cc1 [Example 58, 4-(3-Bromo-phenylamino)-6-(4-methoxy-benzylamino)-[1,7]naphthyridine-3-carbonitrile] |  |
| 185 to 190 °C (dec.) | N#Cc1cnc2cnc(N)cc2c1Nc1cccc(Br)c1 [Example 59, 6-Amino-4-(3-bromo-phenylamino)-[1,7]naphthyridine-3-carbonitrile] |  |
| 255 °C (dec.) | CC#CC(=O)Nc1cc2c(Nc3cccc(Br)c3)c(C#N)cnc2cn1 [Example 61, But-2-ynoic Acid, [4-(3-bromo-phenylamino)-3-cyano-[1,7]naphthyridin-6-yl]-amide] |  |
| 180 to 185 °C (dec.) | CN(C)CC=CC(=O)Nc1cc2c(Nc3cccc(Br)c3)c(C#N)cnc2cn1 [Example 62, 4-Dimethylamino-but-2-enoic Acid, [4-(3-bromo-phenylamino)-3-cyano-[1,7]naphthyridin-6-yl]-amide] | IC50 [3]: 0.356 µg/mL (≈ 0.789 µM) |
| 80 to 96 °C (dec.) | N#Cc1cnc2cnc(NCCN3CCOCC3)cc2c1Nc1cccc(Br)c1 [Example 63, 4-(3-Bromo-phenylamino)-6-(2-morpholino-4-yl-ethylamino)-[1,7]naphthyridine-3-carbonitrile] |  |
| 250 °C (dec.) | CNc1cc2c(Nc3cccc(Br)c3)c(C#N)cnc2cn1 [Example 64, 4-(3-Bromo-phenylamino)-6-methylamino-[1,7]naphthyridine-3-carbonitrile] |  |
| 236 to 239 °C (dec.) | Cc1ccc(Nc2c(C#N)cnc3cnc(F)cc23)cc1O [Example 66, 6-Fluoro-4-(3-hydroxy-4-methyl-phenylamino)-[1,7]naphthyridine-3-carbonitrile] | IC50 [1]: > 3.3 µM |
| 211 to 213 °C | N#Cc1cnc2cnc(F)cc2c1Nc1ccc(Oc2ccccc2)cc1 [Example 67, 6-Fluoro-4-(4-phenoxy-phenylamino)-[1,7]naphthyridine-3-carbonitrile] |  |
| 206 to 208 °C | N#Cc1cnc2cnc(F)cc2c1Nc1ccc(Cl)cc1Cl [Example 68, 4-(2,4-Dichloro-phenylamino)-6-fluoro-[1,7]naphthyridine-3-carbonitrile] |  |
| 108 to 111 °C | N#Cc1cnc2cnc(F)cc2c1Nc1ccc(F)c(Cl)c1 [Example 69, 4-(3-Chloro-4-fluoro-phenylamino)-6-fluoro-[1,7]naphthyridine-3-carbonitrile] |  |
| 186 to 188 °C | N#Cc1cnc2cnc(F)cc2c1Oc1ccc(Cl)cc1F [Example 71, 4-(4-Chloro-2-fluoro-phenoxy)-6-fluoro-[1,7]naphthyridine-3-carbonitrile] |  |
| 159 to 161 °C | CN(C)CCOc1cc2c(Nc3ccc(Oc4ccccc4)cc3)c(C#N)cnc2cn1 [Example 73, 6-(2-Dimethylamino-ethoxy)4(4-phenoxy-phenylamino)-[1,7]naphthyridine-3-carbonitrile] |  |
| 131 to 132 °C | CN(C)CCOc1cc2c(Nc3ccc(F)c(Cl)c3)c(C#N)cnc2cn1 [Example 74, 4-(3-Chloro-4-fluoro-phenylamino)-6-(2-dimethylamino-ethoxy)-[1,7]naphthyridine-3-carbonitrile] |  |
| 150 to 152 °C | CN(C)CCOc1cc2c(Nc3ccc(Cl)cc3F)c(C#N)cnc2cn1 [Example 76, 4-(4-Chloro-2-fluoro-phenylamino)-6-(2-dimethylamino-ethoxy)-[1,7]naphthyridine-3-carbonitrile] |  |
| 138 to 139 °C | CN(C)CCOc1cc2c(Nc3cccc(Br)c3)c(C#N)cnc2cn1 [Example 77, 4-(3-Bromo-phenylamino)-6-(2-dimethylamino-ethoxy)-[1,7]naphthyridine-3-carbonitrile] | IC50 [1]: > 2.4 µM |
| 220 to 223 °C | N#Cc1cnc2cnc(Cl)cc2c1Nc1cccc(Br)c1 [Example 83, 4-(3-Bromo-phenylamino)-6-chloro-[1,7]naphthyridine-3-carbonitrile] |  |
| 224 °C (dec.) | C#Cc1cc2c(Nc3cccc(Br)c3)c(C#N)cnc2cn1 [Example 86, 4-(3-Bromo-phenylamino)-6-ethynyl-[1,7]naphthyridine-3-carbonitrile] |  |

| SMILES | melting point | further results |
| --- | --- | --- |
| C[Si](C)(C)C#Cc1cc2c(Nc3cccc(Br)c3)c(C#N)cnc2cn1 [Example 85, 4-(3-Bromo-phenylamino)-6-trimethylsilanylethynyl-[1,7]naphthyridine-3-carbonitrile] | 125 °C | IC50 [4]: 2.34 µg/mL (≈ 5.56 µM); IC50 [5]: 3.59 µg/mL (≈ 8.52 µM); IC50 [6]: 2.97 µg/mL (≈ 7.05 µM); IC50 [7]: 3.06 µg/mL (≈ 7.25 µM); IC50 [3]: 4.72 µg/mL (≈ 11.2 µM); IC50 [8]: 4.2 µg/mL (≈ 9.97 µM) |
